Holding throughout (assay type): cell-based
The test system of experiment [1] is AsPC-1 (K-Ras G12D). Nature of the experiment: CellTiter-Glo cell viability assay, AsPC-1. The following applies: Homo sapiens, ASPC1, 120 h. The method in brief:
(§1)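 Direct compound addition to plated cells; 5-day exposure; ~30 min RT equilibration; CellTiter-Glo luminescence. Normalization: (sample/avg DMSO)*100; 4-parameter logistic curve fit.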

In experiment [2] the test system is AsPC-1 (K-Ras G12D). The experiment can be described thus: Potency assay: pERK in AsPC-1 cells. The following applies: Homo sapiens.
The subject of the next experiment is NCI-H358 (K-Ras G12C). Nature of the experiment: CellTiter-Glo cell viability assay, H358. To be noted: Homo sapiens, NCI-H358, 120 h. The essentials:
as §1

[3] abbreviates: AsPC-1, K-Ras G12D, 5-day treatment, read-out: AsPC-1 Cell Viability IC50.
Where [4] appears, read: ASPC1, AsPC-1 cells, K-Ras G12D, read-out: pERK EC50 (AsPC-1 KRAS G12D).
Setting [5] is: NCI-H358, K-Ras G12C, 5-day treatment, read-out: H358 Cell Viability IC50.
Where [6] appears, read: ASPC1, read-out: pERK EC50 (AsPC-1 KRAS G12D).
[7] abbreviates: read-out: AsPC-1 Cell Viability IC50, AsPC-1, K-Ras G12D, 5-day treatment.
The mark [8] stands for this setting: read-out: H358 Cell Viability IC50, NCI-H358, K-Ras G12C, 5-day treatment.

Where two headings read alike, the source gives them in different places.

Regarding `CCn1c(-c2cccnc2[C@H](C)OC)c2c3cc(ccc31)-c1csc(n1)C[C@H](NC(=O)[C@H](C(C)C)N(C)C(=O)N1CCC(CN(C)C(=O)[C@H]3CN3)CC1)C(=O)N1CCC[C@H](N1)C(=O)OCC(C)(C)C2` [Compound 326], the IC50 in the experiment on AsPC-1 (K-Ras G12D) [1] (setting [3]) is 100 to 1000 nM; in the experiment on NCI-H358 (K-Ras G12C) (setting [5]), 10 to 100 nM. Besides, in the experiment with AsPC-1 (K-Ras G12D) [2] (setting [4]), the concentration for a half-maximal effect (EC50) was below 5 µM.
In the same order, the values of `CCn1c(-c2cccnc2[C@H](C)OC)c2c3cc(ccc31)-c1cc(O)cc(c1)C[C@H](NC(=O)[C@H](C1CCCC1)N(C)C(=O)[C@H](C)N(C)C(=O)[C@@H]1N[C@@H]1C1CC1)C(=O)N1CCC[C@H](N1)C(=O)OCC(C)(C)C2` [Compound 328] are 100 to 1000 nM, below 10 nM and below 5 µM.
In the same order, the values of `CCn1c(-c2cnccc2COC)c2c3cc(ccc31)-c1cc(O)cc(c1)C[C@H](NC(=O)[C@H](C(C)C)N(C)C(=O)[C@H]1CCN(C(=O)[C@H]3CN3)C1)C(=O)N1CCC[C@H](N1)C(=O)OCC(C)(C)C2` [Example 1, (3S)-1-((R)-aziridine-2-carbonyl)-N-((2S)-1-(((6^3S,4S)-1^1-ethyl-2^5-hydroxy-1^2-(4-(methoxymethyl)pyridin-3-yl)-10,10-dimethyl-5,7-dioxo-6^1,6^2,6^3,6^4,6^5,6^6-hexahydro-1^1H-8-oxa-1(5,3)-indola-6(1,3)-pyridazina-2(1,3)-benzenacycloundecaphane-4-yl)amino)-3-methyl-1-oxobutan-2-yl)-N-methylpyrrolidine-3-carboxamide] are 1000 to 10000 nM, below 10 nM and below 5 µM.
As to `CCn1c(-c2cnccc2COC)c2c3cc(ccc31)-c1cc(O)cc(c1)C[C@H](NC(=O)[C@H](C(C)C)N(C)C(=O)CN(C)C(=O)[C@H]1[C@@H](C(=O)OC)N1[S@+]([O-])C(C)(C)C)C(=O)N1CCC[C@H](N1)C(=O)OCC(C)(C)C2` (stereo partly drawn) [Example 48, methyl (2S,3R)-1-((R)-tert-butylsulfinyl)-3-((2-(((2S)-1-(((6^3S,4S)-1^1-ethyl-2^5-hydroxy-1^2-(4-(methoxymethyl)pyridin-3-yl)-10,10-dimethyl-5,7-dioxo-6^1,6^2,6^3,6^4,6^5,6^6-hexahydro-1^1H-8-oxa-1(5,3)-indola-6(1,3)-pyridazina-2(1,3)-benzenacycloundecaphane-4-yl)amino)-3-methyl-1-oxobutan-2-yl)(methyl)amino)-2-oxoethyl)(methyl)carbamoyl)aziridine-2-carboxylate], the values for the IC50 in the experiment on AsPC-1 (K-Ras G12D) [1] (read-out: AsPC-1 Cell Viability IC50) and in the experiment on NCI-H358 (K-Ras G12C) (read-out: H358 Cell Viability IC50) were 1000 to 10000 nM and 100 to 1000 nM, respectively. The EC50 in the experiment on AsPC-1 (K-Ras G12D) [2] (setting [6]) is below 5 µM.
As to `CCn1c(-c2cnccc2COC)c2c3cc(ccc31)-c1cc(O)cc(c1)C[C@H](NC(=O)[C@H](C(C)C)N(C)C(=O)CN(C)C(=O)[C@@H]1N[C@@H]1C(=O)OC)C(=O)N1CCC[C@H](N1)C(=O)OCC(C)(C)C2` [Example 49, methyl (2S,3R)-3-((2-(((2S)-1-(((6^3S,4S)-1^1-ethyl-2^5-hydroxy-1^2-(4-(methoxymethyl)pyridin-3-yl)-10,10-dimethyl-5,7-dioxo-6^1,6^2,6^3,6^4,6^5,6^6-hexahydro-1^1H-8-oxa-1(5,3)-indola-6(1,3)-pyridazina-2(1,3)-benzenacycloundecaphane-4-yl)amino)-3-methyl-1-oxobutan-2-yl)(methyl)amino)-2-oxoethyl)(methyl)carbamoyl)aziridine-2-carboxylate], the IC50 with AsPC-1 (K-Ras G12D) [1] (setting [7]) and with NCI-H358 (K-Ras G12C) (setting [8]) was 1000 to 10000 nM in each case. For the same molecule, the EC50 in the experiment with AsPC-1 (K-Ras G12D) [2] (setting [6]) is below 5 µM.
In the case of `CCn1c(-c2cccnc2[C@H](C)OC)c2c3cc(ccc31)-c1cc(O)cc(c1)C[C@H](NC(=O)[C@H](C1CCCC1)N(C)C(=O)CN(C)C(=O)[C@H]1CN1)C(=O)N1CCC[C@H](N1)C(=O)OCC(C)(C)C2` [Example 95, (2R)—N-(2-(((1S)-1-cyclopentyl-2-(((6^3S,4S)-1^1-ethyl-2^5-hydroxy-1^2-(2-((S)-1-methoxyethyl)pyridin-3-yl)-10,10-dimethyl-5,7-dioxo-6^1,6^2,6^3,6^4,6^5,6^6-hexahydro-1^1H-8-oxa-1(5,3)-indola-6(1,3)-pyridazina-2(1,3)-benzenacycloundecaphane-4-yl)amino)-2-oxoethyl)(methyl)amino)-2-oxoethyl)-N-methylaziridine-2-carboxamide], the IC50 in the experiment with AsPC-1 (K-Ras G12D) [1] (setting [7]) is 10 to 100 nM; with NCI-H358 (K-Ras G12C) (setting [8]), below 10 nM. Besides, the EC50 in the experiment on AsPC-1 (K-Ras G12D) [2] (setting [6]) is below 5 µM.
In the same order, the values of `CCn1c(-c2cccnc2[C@H](C)OC)c2c3cc(ccc31)-c1cc(O)cc(c1)C[C@H](NC(=O)[C@H](C(C)C)N(C)C(=O)CN(C)C(=O)[C@@H]1N[C@@H]1C1CC1)C(=O)N1CCC[C@H](N1)C(=O)OCC(C)(C)C2` [Example 133, (2R,3R)-3-cyclopropyl-N-(2-(((2S)-1-(((6^3S,4S)-1^1-ethyl-2^5-hydroxy-1^2-(2-((S)-1-methoxyethyl)pyridin-3-yl)-10,10-dimethyl-5,7-dioxo-6^1,6^2,6^3,6^4,6^5,6^6-hexahydro-1^1H-8-oxa-1(5,3)-indola-6(1,3)-pyridazina-2(1,3)-benzenacycloundecaphane-4-yl)amino)-3-methyl-1-oxobutan-2-yl)(methyl)amino)-2-oxoethyl)-N-methylaziridine-2-carboxamide] are 10 to 100 nM, 10 to 100 nM and below 5 µM.
With `CCn1c(-c2cccnc2[C@H](C)OC)c2c3cc(ccc31)-c1cc(O)cc(c1)C[C@H](NC(=O)[C@H](C1CCCC1)N1CC[C@]3(CCN(C(=O)[C@H]4CN4)C3)C1=O)C(=O)N1CCC[C@H](N1)C(=O)OCC(C)(C)C2` [Example 175, (2S)-2-((S)-7-((R)-aziridine-2-carbonyl)-1-oxo-2,7-diazaspiro[4.4]nonan-2-yl)-2-cyclopentyl-N-((6^3S,4S)-1^1-ethyl-2^5-hydroxy-1^2-(2-((S)-1-methoxyethyl)pyridin-3-yl)-10,10-dimethyl-5,7-dioxo-6^1,6^2,6^3,6^4,6^5,6^6-hexahydro-1^1H-8-oxa-1(5,3)-indola-6(1,3)-pyridazina-2(1,3)-benzenacycloundecaphane-4-yl)acetamide], the figures for the IC50 in the experiment on AsPC-1 (K-Ras G12D) [1] (setting [3]) and in the experiment with NCI-H358 (K-Ras G12C) (setting [5]) were 10 to 100 nM and below 10 nM, respectively. Moreover, the EC50 in the experiment on AsPC-1 (K-Ras G12D) [2] (setting [4]) is below 5 µM.
Regarding `CCn1c(-c2cc(N3CCN(C)CC3)cnc2[C@H](C)OC)c2c3cc(ccc31)-c1cc(O)cc(c1)C[C@H](NC(=O)[C@H](C1CCCC1)N(C)C(=O)CN(C)C(=O)[C@H]1CN1)C(=O)N1CCC[C@H](N1)C(=O)OCC(C)(C)C2` [Example 209, (2R)—N-(2-(((1S)-1-cyclopentyl-2-(((6^3S,4S)-1^1-ethyl-2^5-hydroxy-1^2-(2-((S)-1-methoxyethyl)-5-(4-methylpiperazin-1-yl)pyridin-3-yl)-10,10-dimethyl-5,7-dioxo-6^1,6^2,6^3,6^4,6^5,6^6-hexahydro-1^1H-8-oxa-1(5,3)-indola-6(1,3)-pyridazina-2(1,3)-benzenacycloundecaphane-4-yl)amino)-2-oxoethyl)(methyl)amino)-2-oxoethyl)-N-methylaziridine-2-carboxamide], the IC50 with AsPC-1 (K-Ras G12D) [1] (setting [7]) and in the experiment on NCI-H358 (K-Ras G12C) (setting [8]) was below 10 nM throughout. Besides, the EC50 in the experiment with AsPC-1 (K-Ras G12D) [2] (setting [6]) was below 5 µM.
`CCn1c(-c2cccnc2[C@H](C)OC)c2c3cc(ccc31)-c1cc(O)cc(c1)C[C@H](NC(=O)[C@H](C1CCCC1)N1CC[C@]3(CCN(C(=O)[C@@H]4N[C@@H]4C4CC4)C3)C1=O)C(=O)N1CCC[C@H](N1)C(=O)OCC(C)(C)C2` [Example 214, (2S)-2-cyclopentyl-2-((S)-7-((2R,3R)-3-cyclopropylaziridine-2-carbonyl)-1-oxo-2,7-diazaspiro[4.4]nonan-2-yl)-N-((6^3S,4S)-1^1-ethyl-2^5-hydroxy-1^2-(2-((S)-1-methoxyethyl)pyridin-3-yl)-10,10-dimethyl-5,7-dioxo-6^1,6^2,6^3,6^4,6^5,6^6-hexahydro-1^1H-8-oxa-1(5,3)-indola-6(1,3)-pyridazina-2(1,3)-benzenacycloundecaphane-4-yl)acetamide]: the IC50 with AsPC-1 (K-Ras G12D) [1] (setting [3]) and in the experiment with NCI-H358 (K-Ras G12C) (setting [5]) was 10 to 100 nM each time. Moreover, the EC50 with AsPC-1 (K-Ras G12D) [2] (setting [4]) is below 5 µM.

The values are drawn from patent US11739074B2, “Ras inhibitors” (Revolution Medicines, Inc., priority 2019, dated 2023).
